± gives the expanded uncertainty stated by the source.
Assay: refractive index (other wavelength) (dimensionless); xn = mol fraction of the nth substance listed
Conditions: 288.62 K, 100 kPa, Liquid, Wavelength=632.8 nm, minimum deviation angle technique

N#Cc1ccccc1 [benzonitrile] + CCCCCCCCCC
Conditions	refractive index
x1 = 0.112	1.4196 ± 0.0003
x1 = 0.188	1.4249 ± 0.0003
x1 = 0.34	1.4371 ± 0.0003
x1 = 0.396	1.4422 ± 0.0003
x1 = 0.49	1.4514 ± 0.0004
x1 = 0.608	1.4647 ± 0.0004
x1 = 0.702	1.4771 ± 0.0004
x1 = 0.821	1.4952 ± 0.0004
x1 = 0.912	1.5105 ± 0.0005
x1 = 1	1.5277 ± 0.0003
